US20230278972A1, “SUBSTITUTED HALOALKYL SULFONANILIDE HERBICIDES” (FMC Corporation, priority 2020, published 2023)

What was measured:
[1] = test system: pigweed (Amaranthus retroflexus); assay: Test A postemergence, pigweed; type: in vivo; conditions: Amaranthus retroflexus, post-emergence, 240 h, Postemergence, 0 to 100 scale (0 no effect, 100 complete control), read-out: Plant response rating, Pigweed
Outline: (§1)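 Seeds are sown in loam mixed with sand and sprayed on the soil surface right after planting for the preemergence test. Postemergence pots are sprayed once seedlings reach 2 to 10 cm at the one- to two-leaf stage. The same surfactant-containing, non-phytotoxic solvent formulation serves both.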

[2] = test system: ducksalad (Heteranthera limosa); assay: Test B flooded paddy test, ducksalad; conditions: 336 h, read-out: Plant response rating, Ducksalad
[3] = test system: ragweed (common ragweed, Ambrosia artemisiifolia); assay: Test A postemergence, ragweed; type: in vivo; conditions: Ambrosia artemisiifolia, post-emergence, 240 h, Postemergence, 0 to 100 scale (0 no effect, 100 complete control), read-out: Plant response rating, Ragweed
Outline: as §1

[4] = test system: Foxtail, Giant (giant foxtail, Setaria faberi); assay: Test A postemergence, Foxtail, Giant; type: in vivo; conditions: Setaria faberi, post-emergence, 240 h, Postemergence, 0 to 100 scale (0 no effect, 100 complete control), read-out: Plant response rating, Foxtail, Giant
Outline: as §1

[5] = test system: barnyardgrass (Echinochloa crus-galli); assay: Test A preemergence, barnyardgrass; type: in vivo; conditions: Echinochloa crus-galli, pre-emergence, 240 h, Preemergence
Outline: as §1

[6] = 500 g ai/ha, visual injury approx. 10 days

Cc1cc(C)c(C(=O)N2CCC(F)(F)CC2)cc1NS(=O)(=O)C(F)(F)F [Compound 241, N-[5-[(4,4-Difluoro-1-piperidinyl)carbonyl]-2,4-dimethylphenyl]-1,1,1-trifluoromethanesulfonamide]
pest or weed control at 125 g/ha ([1]; 125 g ai/ha): 60%
pest or weed control at 500 g/ha [1, 6]: 80%
pest or weed control at 250 g/ha [2]: 85%
pest or weed control at 125 g/ha ([3]; 125 g ai/ha): 40%
pest or weed control at 500 g/ha [3, 6]: 80%
pest or weed control at 125 g/ha ([4]; 125 g ai/ha): 0%
pest or weed control at 500 g/ha [4, 6]: 30%
pest or weed control at 125 g/ha ([5]; 125 g ai/ha, visual injury, 0 to 100 scale (0 no effect, 100 complete control), approx. 10 days, read-out: Plant response rating, Barnyardgrass): 100%
pest or weed control at 500 g/ha ([5]; 500 g ai/ha, visual injury on 0 to 100 scale (0 no effect, 100 complete control), approximately 10 days, read-out: Barnyardgrass plant response rating): 100%
